“Also recorded” adds a separate entry of the source. Ends that are not written are not given here.
Tests used:
[1] = test system: anti-Factor Xa Activity of Unfractionated Heparin; test: Anti-Factor Xa assay: neutralization of unfractionated heparin in citrate or plasma in vitro; type: biochemical, human; details: UFH 0.7 U/ml
Summary of the method: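 Chromogenic anti-Factor Xa kit run with UFH, enoxaparin (Lovenox) or danaparoid (Orgaran) in 0.32% citrate or citrated plasma from three volunteers. Heparin/ATIII complex formed, peptide added, then Factor Xa and dye substrate; absorbance at 405 nm, inversely proportional to remaining anti-Factor Xa activity.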

[2] = test system: Anti-Factor Xa Activity of the Non-Heparin Glycosaminoglycan Orgaran ®; test: Anti-Factor Xa assay: neutralization of Orgaran in citrate or plasma in vitro; type: biochemical, human
Procedure: The ability of peptides such as (ARKKAAKA)3VLVLVLVL (SEQ ID NO:5) to neutralize the anti-Factor Xa activity of UFH and LMWH in vitro was tested using the Stachrom Heparin kit (Diagnostica Stago), a standard hematology laboratory assay used to measure the anti-Factor Xa activity of heparin. The assay was performed using the low molecular weight heparin enoxaparin sodium (Lovenox®, Aventis Pharmaceuticals, Inc.), unfractionated heparin (UFH), or the non-heparin glycosaminoglycan danaparoid sodium (Orgaran®, Organon Inc., West Orange, N.J.) in 0.32% citrate or in plasma anticoagulated with 0.32% citrate. Enoxaparin is commonly used clinically as a low molecular weight heparin (LMWH). Danaparoid is commonly used clinically as a non-heparin glycosaminoglycan anticoagulant. Currently, the only FDA approved drug to target UFH is protamine, which is not effective in vivo against LMWH or a non-heparin glycosaminoglycan such as danaparoid. Buffer and ATIII are added to form the heparin/ATIII complex, peptide is added, then Factor Xa, reporter dye substrate for Factor Xa activity, and stop solution, and the dye concentration is read at 405 nm. The absorbance of the dye increases with increasing Factor Xa activity, and thus is inversely proportional to the heparin (anti-Factor Xa activity) concentration. Peptides were tested in plasma obtained from three volunteers (A, B, and C). Platelet function inhibitors PG12 and theophylline were added to the blood immediately upon collection. […]

[3] = test system: platelets; test: Platelet aggregation with aggregation-inducing agents; type: cell-based, human; details: 12 μg/ml; Lovenox 0.5 U/ml; collagen, ADP, ristocetin, epinephrine, SFFLRN, A23187
Summary of the method: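 Plasma from six donors, platelets equilibrated 1 min before agonist (collagen, ADP, ristocetin, epinephrine, SFFLRN, A23187; several concentrations each). Heparin-binding peptides at 12 μg/ml, Lovenox at 0.5 U/ml, protamine also tested. Percent aggregation monitored over 5 min.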

[4] = test system: unfractionated heparin (thrombin-induced clot formation); test: Thrombin neutralization assay: clotting time of citrated plasma in the presence of unfractionated heparin; type: biochemical, human; details: UFH 0.5 IU/ml
Procedure: It was determined whether heparin-binding peptides of the invention can neutralize unfractionated heparin using the thrombin neutralization assay. The six peptides that were synthesized and used in this Example are: (ARKKAAKA)3VLVLVLVL (SEQ ID NO:5); (ARKKAAKA)(A16)(ARKKAAKA) (SEQ ID NO:30); (ARKKAAKA)4 (SEQ ID NO:31); (AKKARA)6 (SEQ ID NO:32); (ARKKAAKA)3(ARKKCAKA) (SEQ ID NO:33); and cyclized C(ARKKAAKA)4C (SEQ ID NO:34); Citrated plasma was pipetted into a glass tube. Thrombin was added, the tube was manually rotated, and clotting time was determined by observation of clot formation. Normal clotting time is 19-22 seconds.
As a control, to assess the effect of heparin on clot formation, unfractionated heparin was added to the plasma at 0.5 IU anti-thrombin activity/ml and then thrombin was added. Clotting time in the presence of heparin alone was greater than 3 minutes.
To test the effect of peptides, heparin and six peptides at the concentrations indicated in Table 4 were added to the plasma, the mixture was allowed to stand at room temperature for 1 minute, and thrombin was added. The time for the clot to form is indicated. Experiments were performed using plasma from three volunteers—A, B, and C.

[5] = Hemodynamic effects in rats without prior Lovenox; details: 2 mg per rat, no Lovenox
[6] = Hemodynamic effects in rats after administration of the LMWH Lovenox; details: in the presence of LMWH Lovenox
Procedure: Next, experiments were performed in which the animals were treated with the peptides after the administration of the LMWH Lovenox®, as would happen in the clinical situation, because binding of peptides to LMWH would be expected to reduce the effects of the peptides on hemodynamic function.

## ARKKAAKAARKKAAKAARKKAAKAARKKAAKA [(ARKKAAKA)4]
[1]; 1 μg/ml Peptide, A Plasma
  Unfractionated Heparin Neutralized: 0.069 ± 0.023 U/ml
[1]; 1 μg/ml Peptide, B Plasma
  Unfractionated Heparin Neutralized: 0.124 ± 0.047 U/ml
[1]; 1 μg/ml Peptide, C Plasma
  Unfractionated Heparin Neutralized: 0.076 ± 0.014 U/ml
[1]; 1 μg/ml Peptide, Citrate
  Unfractionated Heparin Neutralized: 0.056 ± 0.019 U/ml
[1]; 6 μg/ml Peptide, A Plasma
  Unfractionated Heparin Neutralized: 0.334 ± 0.016 U/ml
[1]; 6 μg/ml Peptide, B Plasma
  Unfractionated Heparin Neutralized: 0.361 ± 0.038 U/ml
[1]; 6 μg/ml Peptide, C Plasma
  Unfractionated Heparin Neutralized: 0.397 ± 0.004 U/ml
[1]; 6 μg/ml Peptide, Citrate
  Unfractionated Heparin Neutralized: 0.423 ± 0.014 U/ml
[1]; 12 μg/ml Peptide, A Plasma
  Unfractionated Heparin Neutralized: 0.412 ± 0.010 U/ml
[1]; 12 μg/ml Peptide, B Plasma
  Unfractionated Heparin Neutralized: 0.395 ± 0.012 U/ml
[1]; 12 μg/ml Peptide, C Plasma
  Unfractionated Heparin Neutralized: 0.396 ± 0.018 U/ml
[1]; 12 μg/ml Peptide, Citrate
  Unfractionated Heparin Neutralized: 0.370 ± 0.020 U/ml
[1]; 60 μg/ml Peptide, A Plasma
  Unfractionated Heparin Neutralized: 0.389 ± 0.018 U/ml
[1]; 60 μg/ml Peptide, B Plasma
  Unfractionated Heparin Neutralized: 0.442 ± 0.056 U/ml
[1]; 60 μg/ml Peptide, C Plasma
  Unfractionated Heparin Neutralized: 0.401 ± 0.012 U/ml
[1]; 60 μg/ml Peptide, Citrate
  Unfractionated Heparin Neutralized: 0.378 ± 0.023 U/ml
[1]; 120 μg/ml Peptide, A Plasma
  Unfractionated Heparin Neutralized: 0.364 ± 0.032 U/ml
[1]; 120 μg/ml Peptide, B Plasma
  Unfractionated Heparin Neutralized: 0.392 ± 0.075 U/ml
[1]; 120 μg/ml Peptide, C Plasma
  Unfractionated Heparin Neutralized: 0.374 ± 0.020 U/ml
[1]; 120 μg/ml Peptide, Citrate
  Unfractionated Heparin Neutralized: 0.361 ± 0.028 U/ml
[2]; 1 μg/ml Peptide, A Plasma
  Orgaran Neutralized: 0.026 ± 0.021 U/ml
[2]; 1 μg/ml Peptide, B Plasma
  Orgaran Neutralized: 0.025 ± 0.009 U/ml
[2]; 1 μg/ml Peptide, C Plasma
  Orgaran Neutralized: 0.020 ± 0.012 U/ml
[2]; 1 μg/ml Peptide, Citrate
  Orgaran Neutralized: 0.021 ± 0.022 U/ml
[2]; 6 μg/ml Peptide, A Plasma
  Orgaran Neutralized: 0.061 ± 0.006 U/ml
[2]; 6 μg/ml Peptide, B Plasma
  Orgaran Neutralized: 0.057 ± 0.022 U/ml
[2]; 6 μg/ml Peptide, C Plasma
  Orgaran Neutralized: 0.074 ± 0.056 U/ml
[2]; 6 μg/ml Peptide, Citrate
  Orgaran Neutralized: 0.172 ± 0.028 U/ml
[2]; 12 μg/ml Peptide, A Plasma
  Orgaran Neutralized: 0.082 ± 0.012 U/ml
[2]; 12 μg/ml Peptide, B Plasma
  Orgaran Neutralized: 0.110 ± 0.021 U/ml
[2]; 12 μg/ml Peptide, C Plasma
  Orgaran Neutralized: 0.116 ± 0.021 U/ml
[2]; 12 μg/ml Peptide, Citrate
  Orgaran Neutralized: 0.178 ± 0.021 U/ml
[2]; 60 μg/ml Peptide, A Plasma
  Orgaran Neutralized: 0.211 ± 0.029 U/ml
[2]; 60 μg/ml Peptide, B Plasma
  Orgaran Neutralized: 0.192 ± 0.009 U/ml
[2]; 60 μg/ml Peptide, C Plasma
  Orgaran Neutralized: 0.182 ± 0.006 U/ml
[2]; 60 μg/ml Peptide, Citrate
  Orgaran Neutralized: 0.298 ± 0.044 U/ml
[2]; 120 μg/ml Peptide, A Plasma
  Orgaran Neutralized: 0.286 ± 0.040 U/ml
[2]; 120 μg/ml Peptide, B Plasma
  Orgaran Neutralized: 0.302 ± 0.012 U/ml
[2]; 120 μg/ml Peptide, C Plasma
  Orgaran Neutralized: 0.299 ± 0.024 U/ml
[2]; 120 μg/ml Peptide, Citrate
  Orgaran Neutralized: 0.366 ± 0.019 U/ml
[3]
  effect on platelet aggregation: no significant inhibition or enhancement of aggregation
[4]; 0.30 μg peptide/0.1 ml, plasma A
  Time for clot formation: 56.33 ± 4.92 s
[4]; 0.30 μg peptide/0.1 ml, plasma B
  Time for clot formation: 53.33 ± 1.25 s
[4]; 0.35 μg peptide/0.1 ml, plasma A
  Time for clot formation: 22.33 ± 0.47 s
[4]; 0.35 μg peptide/0.1 ml, plasma B
  Time for clot formation: 39.00 ± 5.35 s
[4]; 0.35 μg peptide/0.1 ml, plasma C
  Time for clot formation: 32.67 ± 0.47 s
[4]; 0.40 μg peptide/0.1 ml, plasma A
  Time for clot formation: 18.67 ± 0.94 s
[4]; 0.40 μg peptide/0.1 ml, plasma B
  Time for clot formation: 26.30 ± 1.25 s
[4]; 0.40 μg peptide/0.1 ml, plasma C
  Time for clot formation: 22.67 ± 1.25 s
[4]; 0.50 μg peptide/0.1 ml, plasma A
  Time for clot formation: 19.67 ± 1.25 s
[4]; 0.50 μg peptide/0.1 ml, plasma B
  Time for clot formation: 24.00 ± 0.82 s
[4]; 0.50 μg peptide/0.1 ml, plasma C
  Time for clot formation: 20.67 ± 0.94 s
[5]
  time to nadir of blood pressure: 2 min
[6]
  effect on blood pressure and heart rate / toxicity: no significant effect on blood pressure and heart rate; also recorded: All four rats tested showed no response
